{
  "source": "patent US20030113330A1",
  "about": "“Methods for treating pulmonary fibrosis” (priority 1999, published 2003)",
  "key": {"A549 cells": {"tested_on": "A549 cells", "assay": "FAS-induced apoptosis (activating anti-FAS antibody CH-11) in A549 cells, ISEL / nuclear fragmentation", "format": "cell-based, human", "conditions": "for inhibition of Fas-induced apoptosis of A549 cells: lisinopril 500 ng/ml", "protocol": "Cell Culture. […] Cells were seeded on 12 mm sterile glass cover slips in 24-well chambers at a density of 20,000 cells per well.\nFluorescence Detection of Apoptosis. […] J. Physiol. […] In these assays detached cells were retained by centrifugation of the 24-well culture vessels during fixation with 70% ethanol. In situ end-labeling of fragmented DNA (ISEL) was conducted as described in Gorczyka et al., Canc. Res. 53:1945-1951 (1993). Briefly, ethanol was removed by rinsing cover slips in distilled water for at least 10 minutes. […] The sections were rinsed thoroughly five times with Buffer A and three additional times in 0.5 M PBS. Incorporated bio-UTP was detected by incubation for one hour at 37° C. with avidin-rhodamine; the cover slips were then rinsed in distilled water three times and mounted under Fluoromount Solution (Southern Biotechnology Associates, Birmingham, Ala.).\nSpontaneous or stimulated apoptosis was quantitated as described in Uhal et al., Am. J. Physiol. 269:L819-L828 (1995), in the human lung epithelial cell line A549 by fluorescence detection of chromatin condensation and nuclear fragmentation. The human lung epithelial cell line A549 was cultured on glass cover slips as described in Uhal, et al., Am. J. Physiol. 269:L819-L828 (1995). At the end of the test period, detached cells were retained by centrifuging the culture vessel during fixation of cells in 70% ethanol. Fixed cells were incubated for 30 minutes with 5 ug/ml propidium iodide (PI) in PBS containing DNAse-free RNAse; under these conditions, red fluorescence (>570 nm) is specific for DNA. As in Uhal et al., Am. J. Physiol. 269:L819-L828 (1995), apoptotic cells were identified by the presence of discrete nuclear fragments containing condensed chromatin. Human lung A549 cells were cultured for 20 h in the presence of equivalent concentrations (500 ng/ml) of monoclonal antibody CH-11 (FAS mAb), purified IgM fraction of nonimmune mouse immunoglobulins (IgM), monoclonal antibody 5F-7 (mAb2), and monoclonal antibody 5F-9 (mAb3). Apoptotic cells were scored by the nuclear morphology assay discussed above. A significant difference (p<0.01 compared to control (no additives)), was observed between the means±S.E.M. (at least 4 determinations per condition) of the cells exposed to FAS mAb as compared to the control or other antibody treatments as determined by ANOVA and Dunnett's test. […] J. Physiol.\nEthanol-fixed A549 cells on glass cover slips were subjected to ISEL labeling of fragmented DNA. DNA fragments labeled with biotinylated UTP were detected with rhodamine-conjugated avidin. A549 cells were exposed to either 500 ng/ml anti-FAS antibody (CH-11) under the same conditions as described above or in the presence of 50 ng/ml captopril. […] ISEL-positive A549 cells were quantitated in at least four separate culture vessels exposed to the anti-FAS antibody CH-11 at 500 ng/ml and/or 50 ng/ml captopril.\nA549 cells were exposed to anti-FAS antibody CH-11 as described above, in the presence of 0.005 ng/ml (5 pg/ml) to 50 ng/ml captopril. Inhibition of apoptosis was detected as the decrease in ISEL-positive cells, scored as described above. […] Inhibition of apoptosis was maximal (approximately 85-90%) at 50 ng/ml captopril, a concentration known to be physiologically attainable in humans and to be maximally inhibitory for ACE. See Duchin et al., Clin. Pharmacokinet. 14:241-259 (1988).\nCell Culture and Detection of Apoptosis. […] Ibarra-Sunga, C. Gidea, E. Ang, S. Deshmukh, G. Chaudhary, J. Baraboutis, G. Filippatos and B. D. Uhal, Angiotensin II induces apoptosis in human and rat alveolar epithelial cells. Am. J. Physiol. 276:L885-L889 (1999)). […] J. Physiol. […] As in the above Examples, the induction of apoptosis was verified by Annexin V binding and generation of DNA strand breaks […]"}, "primary rat AEC [1]": {"tested_on": "primary rat AEC", "assay": "Amiodarone-induced net cell loss in primary rat AEC cultures", "format": "cell-based", "conditions": "primary rat AEC", "description": "Primary alveolar epithelial cells were isolated from adult male Wistar rats. The primary cells were studied at day two of culture, a time at which they are type II cell-like by accepted morphologic and biochemical criteria. All primary cell preparations were of better than 90% purity assessed by acridine orange staining. All cells were seeded in 24-well or 6-well chambers, and all experiments were conducted at subconfluent densities of 80-90% in serum-free Ham's F12 medium. Test reagents were diluted with Ham's F12 medium and were applied for 20 hours at 37C. in a 5% CO2 incubator.\nIn all assays, detached cells were retained by centrifugation of the culture vessel at 300×g for 10 minutes with a centrifuge rotor designed for culture plates. For detection of necrosis (dye exclusion of PI), the PI was added directly to the cell culture medium immediately before centrifugation of the culture vessel. For detection of apoptosis, ethanol was added directly to the cell culture medium to a final concentration of 70% immediately before the centrifugation. Afterward, the ethanol was carefully removed and the total cell population (attached plus sedimented detached cells) were stained with PI as described above.\nImportantly, unattached cells were recovered and included in the analyses, and thus the data represent true loss of cells rather than simple detachment from the substratum."}, "primary rat AEC [2]": {"tested_on": "primary rat AEC", "assay": "Angiotensinogen-induced apoptosis in primary rat AEC", "format": "cell-based", "conditions": "ANG 5.0 uM; saralasin 50 ug/ml, lisinopril 500 ng/ml", "protocol": "Cell Culture. […] J. Physiol. Suppl. […] J. Physiol. […] J. Physiol. […] J. Physiol. Suppl.\nDetection of Apoptosis. […] J. Physiol. […] Assay of Annexin V binding by flow cytometry was performed essentially as described for human lung fibroblasts in Uhal, et al., Am. J. Physiol. […] Assay of Caspase-3 activity was performed on viable suspension cultures as reported in Uhal, et al., Am. J. Physiol.\nFor microscopy, cells were cultured on glass cover slips, incubated with test reagents and fixed with 70% ethanol. The fixed cells were immunolabeled overnight at 4° C. with monoclonal antibodies to cytokeratins 7 and 19 (Chemicon International, Temecula, Calif.), and then for one hour at 37° C. with anti-mouse IgG-rhodamine and DNAse-free RNAse (Boehringer Mannheim, Indianapolis, Ind.) The cover slips were then rinsed in distilled water three times and mounted under Fluoromount Solution (Southern Biotechnology Associates, Birmingham, Ala.) containing 5 ug/ml propidium iodide. Photomicroscopy was performed as described in Uhal, et al., Am. J. Physiol."}},
  "note": "Entries after “also recorded” stand apart in the source; their conditions may differ. Where a SMILES comes first, the peptide text is derived from it. The star is where a group is joined. Cbz = O=C(OCc1ccccc1)*; CH2F = FC*",
  "data": [
    {"smiles": "CCc1nc2c(C)cc(C)nc2n1Cc1ccc(-c2ccccc2-c2nn[nH]n2)cc1", "note": "[L158809]", "values": [
      {"measurement": "inhibition of Fas-induced apoptosis of A549 cells", "setting": "A549 cells", "result": "could block"}
    ]},
    {"smiles": "COc1ccc2c(c1OCc1ccccc1)C[C@@H](C(=O)O)N(C(=O)C(c1ccccc1)c1ccccc1)C2", "note": "[PD126055]", "values": [
      {"measurement": "inhibition of Fas-induced apoptosis of A549 cells", "setting": "A549 cells", "result": "unable to significantly inhibit"}
    ]},
    {"smiles": "COC(=O)C[C@H](NC(=O)[C@H](C)NC(=O)[C@@H](NC(=O)OCc1ccccc1)C(C)C)C(=O)CF", "note": "[ZVAD-fmk, N-benzylcarboxy-Val-Ala-Asp-[O-Me]-CH2F] (Cbz-Val-Ala-Asp(OMe)-CH2F)", "values": [
      {"measurement": "effect on amiodarone-induced decrease in total cell number", "setting": "primary rat AEC [1]", "result": "significantly inhibited"},
      {"measurement": "net cell loss abrogated", "setting": "primary rat AEC [1]", "result": 75, "unit": "%"}
    ]},
    {"smiles": "C[C@H](CS)C(=O)N1CCC[C@H]1C(=O)O", "note": "[captopril]", "values": [
      {"measurement": "effect on FAS-induced apoptotic indexes (morphology, DNA fragmentation, ISEL-positive cells)", "setting": "A549 cells; 50 ng/ml captopril with anti-FAS CH-11 500 ng/ml", "result": "completely abrogated; also recorded: essentially abolished"},
      {"measurement": "IC50", "setting": "A549 cells; Homo sapiens, A549, 20 h, read-out: IC50 of inhibition of FAS-induced apoptosis (ISEL labeling)", "result": 0.07, "unit": "ng/mL"},
      {"measurement": "inhibition at 0.05 µg/mL", "setting": "A549 cells; Homo sapiens, A549, read-out: maximal inhibition of apoptosis (decrease in ISEL-positive cells)", "result": "85 to 90", "unit": "%"},
      {"measurement": "concentration at which inhibition of FAS-induced ISEL labeling was measurable", "setting": "A549 cells; anti-FAS CH-11", "result": 5, "unit": "pg/mL"},
      {"measurement": "effect on basal ISEL labeling", "setting": "A549 cells; captopril alone", "result": "no significant effect"},
      {"measurement": "effect on amiodarone-induced decrease in total cell number", "setting": "primary rat AEC [1]", "result": "significantly inhibited"}
    ]},
    {"smiles": "NCCCC[C@H](N[C@@H](CCc1ccccc1)C(=O)O)C(=O)N1CCC[C@H]1C(=O)O", "note": "[lisinopril]", "values": [
      {"measurement": "inhibition at 0.5 µg/mL", "setting": "A549 cells; Homo sapiens, A549 or primary rat AEC, lisinopril 0.5 μg/ml, saralasin 5 μg/ml, read-out: maximal inhibition of apoptosis in response to either Fas activator", "result": 82, "unit": "%"},
      {"measurement": "inhibition of Fas-induced apoptosis of A549 cells", "setting": "A549 cells", "result": "significantly inhibited"},
      {"measurement": "inhibition of angiotensinogen-induced apoptosis", "setting": "primary rat AEC [2]", "result": "blocked"}
    ]},
    {"smiles": "CNCC(=O)N[C@@H](CCCN=C(N)N)C(=O)N[C@H](C(=O)N[C@@H](Cc1ccc(O)cc1)C(=O)N[C@H](C(=O)N[C@@H](Cc1cnc[nH]1)C(=O)N1CCC[C@H]1C(=O)N[C@@H](C)C(=O)O)C(C)C)C(C)C", "note": "[saralasin]", "values": [
      {"measurement": "inhibition of AEC apoptosis in response to Fas", "setting": "A549 cells; cell type not given", "result": 93, "unit": "%"},
      {"measurement": "inhibition of angiotensinogen-induced apoptosis", "setting": "primary rat AEC [2]", "result": "completely inhibited"},
      {"measurement": "effect on amiodarone-induced decrease in total cell number", "setting": "primary rat AEC [1]", "result": "significantly inhibited"}
    ]}
  ]
}
